Literature values as cited in US6488917B2, “Optical brighteners as bleaching agents” (L'Oreal, priority 1998, dated 2002).

Tested on: melanocytes
Conditions: known from the prior art

Oc1ccc(O)cc1 [hydroquinone]
cytotoxicity towards melanocytes: known for its cytotoxicity towards melanocytes
